Laboratory results published in PMC6508865, “Dynamics of thymol dietary supplementation in quail (Coturnix japonica): Linking bioavailability, effects on egg yolk total fatty acids and performance traits” (PLoS ONE, 2019).
Where two headings read alike, the source gives them in different places.

How the values were obtained:
[1] = system: female Japanese quail (Coturnix japonica); assay: Liver histological analysis (histopathological index); assay type: in vivo
Excerpt: (§1) A total of 50 eighty-five days-old female quail of homogeneous body weights (251 ± 1 g; Mean ± SE) and in their egg-laying peak were selected from an initial group of 96 female individuals. All birds continued receiving a basal diet between 85 and 100 days of age and all variables (see below for details) were registered along this period (Pre-supplementation period, Fig 1). From 100 to 128 days of age (S period, Fig 1), females were randomly assigned to either a chronic dietary supplementation with one of 3 THY doses (THY2, THY4 and THY6; 10 females each) or to one of 2 control groups (basal diet, BASAL, and basal diet with vehicle solution, VEHICLE; 10 females each). Once finished the S period, half of the quail were slaughtered for histological analysis (n = 25; Slaughter 1, Fig 1) and the other half were subjected to a pS period of 21 days, during which all females received the BASAL diet (pS, Fig 1). After this period, the remaining 25 animals were also slaughtered for histological analysis (Slaughter 2, Fig 1). In this way, we assessed whether THY induced changes in variables indicative of tissue damage and if so, whether the potential damages could reverse after 3 weeks of supplement withdrawal.
At each slaughter point birds were euthanized by decapitation and livers were removed and stored in buffered formalin at 10%, processed routinely and stained with hematoxylin and eosin (H&E) and periodic acid-Schiff (PAS). Each slide was examined blinded, with a light microscope (Olympus X-785) and photographed with a digital camera (Moticam Camera 2300, 3 Megapixels). To evaluate histological alterations of liver, tissue was divided into 8 random equal areas to ensure there was no overlapping of the studied areas. For each area, the extension and number of each alteration were recorded with a microscope at 40X magnitude. Histopathological index of liver (HIliv) were estimated using a semi-quantitative protocol following, modified by our colleagues. Briefly, alterations were classified into four major reaction patterns each one of those including alterations that concern to different functional units of the liver or to the whole organ: RP1, circulatory disturbances (dilatation of sinusoids, vascular congestion, hemorrhage); RP2, regressive changes (steatosis or fatty degeneration, hydropic degeneration, nuclear alteration, fibrosis, necrosis); RP3, progressive changes (oval cells, cell hypertrophy and hyperplasia); and RP4, liver inflammation (leukocyte infiltration). Then, for each RP, an index was calculated based on two factors: the pathological importance of the lesions (importance factor, W) (range 1–3) and the extension of pathological change (score value, a) from 0 (unchanged) to 8 (extreme occurrence). Finally, a total liver histopathological index (HIliv) was calculated by adding the single RP liver indices of each individual quail. A greater value of (HIliv) reflects the most severely affected individual.

[2] = Thymol quantification in egg yolk (HS-SPME/GC-MS) during chronic dietary supplementation; assay type: in vivo, Coturnix japonica; details: for concentration at 2 days of supplementation / concentration at 9 days of supplementation / concentration at 16 days of supplementation / concentration at 26 days of supplementation / concentration at 17 days after supplement withdrawal: female, Japanese quail (Coturnix japonica), egg yolk, oral, read-out: THY concentration in egg yolk
Excerpt: as §1
To assess changes in egg yolk total FA composition, egg physical characteristics, laying rate, body weight, feed intake and general welfare, during the S and pS periods, five sampling points were defined (Sample points, Fig 1): one initial sample point (at 0 days of S); three sample points during the S period (at 7, 14 and 28 days of S); and one sample point at the end of the pS period (21 days of pS). It should be noted that for determinations of THY concentration, eggs and quail droppings were collected offset from the other variables measured by 2 days, thus were collected on days 2, 9, 16, and 26 days of S, and 17 days of pS, respectively.
Thymol was commercially obtained from Sigma-Aldrich (SAFC®, ⩾99%; FCC, Saint Louis, MO, USA). Supplemented quail were provided 2, 4 or 6.25 g of THY per kg of feed. For this end, THY was prepared in a 2.4, 4.8 and 7.5% w/v ethanolic solution and uniformly sprayed on fresh feed. The feed was prepared and administrated daily, to minimize THY volatilization from feed before its consumption by females. The doses were selected considering two factors. The first, the concentration range for which the transfer of THY to the chicken and/or quail egg has been established. Second, the concentrations of THY supplementation that have shown biological effects. […] In this context, THY4 is and intermediate dose between the last two. Nutrient and FA compositions of the diets supplied were identical between each other and are reported in S1, S2 and S3 Tables, and are in accordance with the National Research Council recommendation.
Egg yolks and droppings of each female were obtained at each sample point (Sample points, Fig 1) and THY concentration was immediately measured by head space-solid phase microextraction followed by gas chromatography-mass spectrometry (HS-SPME/GC-MS) according to Fernandez et al.. SPME was performed with a manual holder with 100 um polydimethylsiloxane (PDMS) fiber. An aliquot of egg yolk (3 g), droppings (5 g) or feed (5 g) was put in a sealed 20 mL glass vial, spiked at the corresponding level with the standard m-cresol (Sigma-Aldrich; ≥ 99% (GC); Saint Louis, MO, USA) stock solution, and vortexed for 5 min. The vials were placed in a water bath and the PDMS fiber was exposed to the headspace for 30 min at 60°C and 5 min at 40°C for egg yolk and droppings or feed, respectively. The fiber was then inserted directly into the GC injector for desorption at 250°C for 10 min in splitless mode. Chromatography analysis was carried out in a Perkin Elmer Clarus 600 equipped with a PSSI injector and a quadrupole MS detector (Perkin Elmer, USA). Turbo Mass 5.4.2 software was used to control and acquire data from GC–MS. […]

[3] = overall mean over control and 2, 4, 6.25 g thymol/kg feed diets and two slaughter batches
[4] = overall mean over control and 2, 4, 6.25 g thymol/kg feed diets and two slaughter batches, no effect of diet

With `Cc1ccc(C(C)C)c(O)c1` [THY, 2 isopropyl-5-methylphenol] the “effect on histopathological features of the liver” value ([1]; 2, 4, 6.25 g of THY/kg feed, 28 days S and 21 days pS) was “did not affect”, the “HILiv.Rp3 (liver histopathological index, progressive changes)” value [1, 3] was 0,80 and the “HILiv.Rp4 (liver histopathological index, inflammation)” value [1, 3] was 0,27. For the same compound, the “HILiv (total liver histopathological index)” value [1, 4] was 22,58, the “HILiv.Rp2 (liver histopathological index, regressive changes)” value [1, 4] was 16,80 and the “Percentage of THY transferred to egg yolk in relation to the amount ingested” value (“Percentage of THY transferred” for short) ([2]; THY2, 2 g of thymol/kg of feed, 2 days of S) was 0.02%. For the same compound, the “Percentage of THY transferred” value ([2]; THY2, 2 g of thymol/kg of feed, 9 days of S) was 0.23%, the “Percentage of THY transferred” value ([2]; THY2, 2 g of thymol/kg of feed, 16 days of S) was 0.22% and the “Percentage of THY transferred” value ([2]; THY2, 2 g of thymol/kg of feed, 26 days of S) was 0.25%. For the same compound, the “Percentage of THY transferred” value ([2]; THY2, 2 g of thymol/kg of feed, pS, 17 days of supplement withdrawal) was 0.03%, the “Percentage of THY transferred” value ([2]; THY4, 4 g of thymol/kg of feed, 2 days of S) was 0.01% and the “Percentage of THY transferred” value ([2]; THY4, 4 g of thymol/kg of feed, 9 days of S) was 0.17%. The “Percentage of THY transferred” value ([2]; THY4, 4 g of thymol/kg of feed, 16 days of S) was 0.17%, the “Percentage of THY transferred” value ([2]; THY4, 4 g of thymol/kg of feed, 26 days of S) was 0.16% and the “Percentage of THY transferred” value ([2]; THY4, 4 g of thymol/kg of feed, pS, 17 days of supplement withdrawal) was 0.02%. The “Percentage of THY transferred” value ([2]; THY6, 6.25 g of thymol/kg of feed, 2 days of S) was 0.02%, the “Percentage of THY transferred” value ([2]; THY6, 6.25 g of thymol/kg of feed, 9 days of S) was 0.14% and the “Percentage of THY transferred” value ([2]; THY6, 6.25 g of thymol/kg of feed, 16 days of S) was 0.13%. The “Percentage of THY transferred” value ([2]; THY6, 6.25 g of thymol/kg of feed, 26 days of S) was 0.13%, the “Percentage of THY transferred” value ([2]; THY6, 6.25 g of thymol/kg of feed, pS, 17 days of supplement withdrawal) was 0.03% and the “THY transferred to the egg yolk, of the amount THY ingested” value ([2]; during the plateau, across THY2, THY4, THY6) was 0.13–0.25%. The “highest concentration of THY detected in egg yolk, molar equivalent” value ([2]; equivalent of 406 ng/g of egg yolk) was ~ 3.05 uM, the concentration at 2 days of supplementation ([2]; 2 g/kg of feed, THY2, 2 g of thymol/kg of feed, 2 days of S) was 12.5 ng/g and the concentration at 9 days of supplementation ([2]; 2 g/kg of feed, THY2, 2 g of thymol/kg of feed, 9 days of S) was 156 ng/g. The concentration at 16 days of supplementation ([2]; 2 g/kg of feed, THY2, 2 g of thymol/kg of feed, 16 days of S) was 150 ng/g, the concentration at 26 days of supplementation ([2]; 2 g/kg of feed, THY2, 2 g of thymol/kg of feed, 26 days of S) was 169 ng/g and the concentration at 17 days after supplement withdrawal ([2]; 2 g/kg of feed, THY2, 2 g of thymol/kg of feed, pS, 17 days of supplement withdrawal) was 17.9 ng/g. The concentration at 2 days of supplementation ([2]; 4 g/kg of feed, THY4, 4 g of thymol/kg of feed, 2 days of S) was 26.1 ng/g, the concentration at 9 days of supplementation ([2]; 4 g/kg of feed, THY4, 4 g of thymol/kg of feed, 9 days of S) was 297 ng/g and the concentration at 16 days of supplementation ([2]; 4 g/kg of feed, THY4, 4 g of thymol/kg of feed, 16 days of S) was 295 ng/g. It also gave a concentration at 26 days of supplementation ([2]; 4 g/kg of feed, THY4, 4 g of thymol/kg of feed, 26 days of S) of 282 ng/g, a concentration at 17 days after supplement withdrawal ([2]; 4 g/kg of feed, THY4, 4 g of thymol/kg of feed, pS, 17 days of supplement withdrawal) of 36.3 ng/g and a concentration at 2 days of supplementation ([2]; 6.25 g/kg of feed, THY6, 6.25 g of thymol/kg of feed, 2 days of S) of 42.9 ng/g. It also gave a concentration at 9 days of supplementation ([2]; 6.25 g/kg of feed, THY6, 6.25 g of thymol/kg of feed, 9 days of S) of 407 ng/g, a concentration at 16 days of supplementation ([2]; 6.25 g/kg of feed, THY6, 6.25 g of thymol/kg of feed, 16 days of S) of 372 ng/g and a concentration at 26 days of supplementation ([2]; 6.25 g/kg of feed, THY6, 6.25 g of thymol/kg of feed, 26 days of S) of 377 ng/g. The concentration at 17 days after supplement withdrawal ([2]; 6.25 g/kg of feed, THY6, 6.25 g of thymol/kg of feed, pS, 17 days of supplement withdrawal) was 69.5 ng/g and the “highest concentration of THY detected in egg yolk” value ([2]; highest of the study) was ~406 ng/g of egg yolk.
